Laboratory results reported in US9708279B2, “2-acylaminothiazoles for the treatment of cancer” (UNIVERSITA′ DEGLI STUDI DI MILANO-BICOCCA, priority 2013, dated 2017).

system: parental untransformed BaF3 cells; assay: Tritiated thymidine uptake cell proliferation assay, parental BaF3; assay type: cell-based; details: Mus musculus, BaF3, read-out: Parental IC50
Experimental: Tritiated Thymidine Uptake Cell Proliferation Assay
The parent untransformed BaF3 cells and ALK-negative cells are used as controls. Cells are seeded in U-bottomed 96-well plates at 10 000 cells/well in a volume of 100 μL in supplemented medium. In the case of the parent untransformed BaF3 cells, the medium is supplemented with IL-3. Serial dilutions of inhibitors are added to the appropriate wells and volumes adjusted to 200 μL. Controls were treated with the equivalent volume of vehicle, DMSO, alone. Plates are incubated at 37° C. for 72 h. ^3[H]-thymidine (1 μCiCi/well) is added for the last 8 h of incubation. Cells are harvested on to paper filters and ^3[H]-thymidine incorporation is measured using a β scintillation counter (1430 MicroBeta, Wallac, Turku, Finland). The 50% inhibitory concentration (IC50) is defined as the concentration of inhibitor, expressed in micromolar, that give a 50% decrease in ^3[H]-thymidine uptake compared with controls.

Going from `CN1CCN(Cc2ccc(C(=O)Nc3nc(-c4cccc(C#Cc5ccccc5)c4)cs3)cc2)CC1` [Example 1, 4-((4-methylpiperazin-1-yl)methyl)-N-(4-(3-(phenylethynyl)phenyl)thiazol-2-yl)benzamide] to `CN1CCN(Cc2ccc(C(=O)Nc3nc(-c4cccc(C#Cc5ccccc5F)c4)cs3)cc2)CC1` [Example 31, N-(4-(3-((2-fluorophenyl)ethynyl)phenyl)thiazol-2-yl)-4-((4-methylpiperazin-1-yl)methyl)benzamide], the IC50 falls from 4.7 µM to 2.2 µM (2.1-fold).

Compared with `Cc1ccc(C#Cc2cccc(-c3csc(NC(=O)c4ccc(CN5CCN(C)CC5)cc4)n3)c2)cc1` [Example 2, 4-((4-methylpiperazin-1-yl)methyl)-N-(4-(3-(p-tolylethynyl)phenyl)thiazol-2-yl)benzamide], `CN1CCN(Cc2ccc(C(=O)Nc3nc(-c4cccc(C#Cc5ccc(F)cc5)c4)cs3)cc2)CC1` [Example 32, N-(4-(3-((4-fluorophenyl)ethynyl)phenyl)thiazol-2-yl)-4-((4-methylpiperazin-1-yl)methyl)benzamide] is 2.3-fold lower in IC50: 5.5 µM for the first, 2.4 µM for the second. The second is the more potent here.

First: COc1ccc(C#Cc2cccc(-c3csc(NC(=O)c4ccc(CN5CCN(C)CC5)cc4)n3)c2)cc1 [Example 3, N-(4-(3-((4-methoxyphenyl)ethynyl)phenyl)thiazol-2-yl)-4-((4-methylpiperazin-1-yl)methyl)benzamide]
Second: Cc1ccc(C#Cc2cc(-c3csc(NC(=O)c4ccc(CN5CCN(C)CC5)cc4)n3)ccc2C)cc1 [Example 5, N-(4-(4-methyl-3-(p-tolylethynyl)phenyl)thiazol-2-yl)-4-((4-methylpiperazin-1-yl)methyl)benzamide]
The IC50 of the first is 2.3-fold lower: 2.3 µM for the first, 5.3 µM for the second. The first is the more potent here.

Compared with `Cc1ccc(-c2csc(NC(=O)c3ccc(CN4CCN(C)CC4)cc3)n2)cc1C#Cc1ccccc1` [Example 4, N-(4-(4-methyl-3-(phenylethynyl)phenyl)thiazol-2-yl)-4-((4-methylpiperazin-1-yl)methyl)benzamide], `COc1ccccc1C#Cc1cc(-c2csc(NC(=O)c3ccc(CN4CCN(C)CC4)cc3)n2)ccc1C` [Example 8, N-(4-(3-((2-methoxyphenyl)ethynyl)-4-methylphenyl)thiazol-2-yl)-4-((4-methylpiperazin-1-yl)methyl)benzamide] is 3.5-fold lower in IC50: 5.3 µM for the first, 1.5 µM for the second.

Compared with `Cc1ccc(-c2csc(NC(=O)c3ccc(CN4CCN(C)CC4)cc3)n2)cc1C#Cc1ccccc1C(F)(F)F` [Example 7, N-(4-(4-methyl-3-((2-(trifluoromethyl)phenyl)ethynyl)phenyl)thiazol-2-yl)-4-((4-methylpiperazin-1-yl)methyl)benzamide], `Cc1cc(-c2csc(NC(=O)c3ccc(CN4CCN(C)CC4)cc3)n2)ccc1C#Cc1ccccc1C(F)(F)F` [Example 11, N-(4-(3-methyl-4-((2-(trifluoromethyl)phenyl)ethynyl)phenyl)thiazol-2-yl)-4-((4-methylpiperazin-1-yl)methyl)benzamide] is 1.6-fold lower in IC50: 5 µM for the first, 3.2 µM for the second. The second is the more potent here.

First: Cc1ccc(C#Cc2ccc(-c3csc(NC(=O)c4ccc(CN5CCN(C)CC5)cc4)n3)cc2C)cc1 [Example 10, N-(4-(3-methyl-4-(p-tolylethynyl)phenyl)thiazol-2-yl)-4-((4-methylpiperazin-1-yl)methyl)benzamide]
Second: CN1CCN(Cc2ccc(C(=O)Nc3nc(-c4cccc(C#Cc5ccccc5C(F)(F)F)c4)cs3)cc2)CC1 [Example 12, 4-((4-methylpiperazin-1-yl)methyl)-N-(4-(3-((2-(trifluoromethyl)phenyl)ethynyl)phenyl)thiazol-2-yl)benzamide]
The IC50 of the first is 1.7-fold higher: 3 µM for the first, 1.8 µM for the second. The second is the more potent here.

Going from `CN1CCN(Cc2ccc(C(=O)Nc3nc(-c4ccc(C#Cc5ccccc5C(F)(F)F)c(C#Cc5ccccc5C(F)(F)F)c4)cs3)cc2)CC1` [Example 13, N-(4-(3,4-bis((2-(trifluoromethyl)phenyl)ethynyl)phenyl)thiazol-2-yl)-4-((4-methylpiperazin-1-yl)methyl)benzamide] to `CN1CCN(C(=O)c2ccc(-c3ccc(C(=O)Nc4nc(-c5cccc(C#Cc6ccccc6C(F)(F)F)c5)cs4)o3)cc2)CC1` [Example 29, 5-(4-(4-methylpiperazine-1-carbonyl)phenyl)-N-(4-(3-((2-(trifluoromethyl)phenyl)ethynyl)phenyl)thiazol-2-yl)furan-2-carboxamide], the IC50 rises from 3.1 µM to 10 µM (3.2-fold). The first is the more potent here.

First: Cc1ccc(-c2csc(NC(=O)c3ccc(CN4CCN(C)CC4)cc3)n2)cc1C#C[Si](C(C)C)(C(C)C)C(C)C [Example 14, N-(4-(4-methyl-3-((triisopropylsilyl)ethynyl)phenyl)thiazol-2-yl)-4-((4-methylpiperazin-1-yl)methyl)benzamide]
Second: Cc1cc(-c2csc(NC(=O)c3ccc(CN4CCN(C)CC4)cc3)n2)ccc1C#C[Si](C(C)C)(C(C)C)C(C)C [Example 15, N-(4-(3-methyl-4-((triisopropylsilyl)ethynyl)phenyl)thiazol-2-yl)-4-((4-methylpiperazin-1-yl)methyl)benzamide]
The IC50 of the first is 1.8-fold lower: 7.8 µM for the first, 14 µM for the second.

Compared with `CC(C)[Si](C#Cc1ccc(-c2csc(NC(=O)c3ccc(CN4CCN(C)CC4)cc3)n2)cc1C#C[Si](C(C)C)(C(C)C)C(C)C)(C(C)C)C(C)C` [Example 16, N-(4-(3,4-bis((triisopropylsilyl)ethynyl)phenyl)thiazol-2-yl)-4((4-methylpiperazin-1-yl)methyl)benzamide], `CC(C)[Si](OCC#Cc1cccc(-c2csc(NC(=O)c3ccc(CN4CCN(C)CC4)cc3)n2)c1)(C(C)C)C(C)C` [Example 22, 4-((4-methylpiperazin-1-yl)methyl)-N-(4-(3-(3-((triisopropylsilyl)oxy)prop-1-yn-1-yl)phenyl)thiazol-2-yl)benzamide] is lower in IC50: greater than 50 µM for the first, 8.5 µM for the second. The second is the more potent here.

`CC[Si](C#Cc1cccc(-c2csc(NC(=O)c3ccc(CN4CCN(C)CC4)cc3)n2)c1)(CC)CC` [Example 17, 4-((4-methylpiperazin-1-yl)methyl)-N-(4-(3-((triethylsilyl)ethynyl)phenyl)thiazol-2-yl)benzamide] and `CN1CCN(Cc2ccc(C(=O)Nc3nc(-c4cccc(C#C[Si](C)(C)C)c4)cs3)cc2)CC1` [Example 18, 4-((4-methylpiperazin-1-yl)methyl)-N-(4-(3-((trimethylsilyl)ethynyl)phenyl)thiazol-2-yl)benzamide] are within 1.5-fold of each other in IC50: 0.46 µM for the first, 0.45 µM for the second.

First: CN1CCN(Cc2ccc(C(=O)Nc3nc(-c4cccc(C#CC5=CCCCC5)c4)cs3)cc2)CC1 [Example 19, N-(4-(3-(cyclohex-1-en-1-ylethynyl)phenyl)thiazol-2-yl)-4-((4-methylpiperazin-1-yl)methyl)benzamide]
Second: CCCCC#Cc1cccc(-c2csc(NC(=O)c3ccc(CN4CCN(C)CC4)cc3)n2)c1 [Example 20, N-(4-(3-(hex-1-yn-1-yl)phenyl)thiazol-2-yl)-4-((4-methylpiperazin-1-yl)methyl)benzamide]
The IC50 of the first is 15-fold lower: 0.49 µM for the first, 7.3 µM for the second.

`CN1CCN(Cc2ccc(C(=O)Nc3nc(-c4cccc(C#CCO[Si](c5ccccc5)(c5ccccc5)C(C)(C)C)c4)cs3)cc2)CC1` [Example 21, N-(4-(3-(3-((tert-butyldiphenylsilyl)oxy)prop-1-yn-1-yl)phenyl)thiazol-2-yl)-4-((4-methylpiperazin-1-yl)methyl)benzamide] and `CN1CCN(Cc2ccc(C(=O)Nc3nc(-c4cccc(C#C[Si](c5ccccc5)(c5ccccc5)C(C)(C)C)c4)cs3)cc2)CC1` [Example 25, N-(4-(3-((tert-butyldiphenylsilyl)ethynyl)phenyl)thiazol-2-yl)-4-((4-methylpiperazin-1-yl)methyl)benzamide] are the same in IC50: 12 µM for the first, 12 µM for the second.

Compared with `CN1CCN(Cc2ccc(C(=O)Nc3nc(-c4cccc(C#CCO[Si](C)(C)C(C)(C)C)c4)cs3)cc2)CC1` [Example 23, N-(4-(3-(3-((tert-butyldimethylsilyl)oxy)prop-1-yn-1-yl)phenyl)thiazol-2-yl)-4-((4-methylpiperazin-1-yl)methyl)benzamide], `CN1CCN(Cc2ccc(C(=O)Nc3nc(-c4cccc(C#C[Si](C)(C)C(C)(C)C)c4)cs3)cc2)CC1` [Example 24, N-(4-(3-((tert-butyldimethylsilyl)ethynyl)phenyl)thiazol-2-yl)-4-((4-methylpiperazin-1-yl)methyl)benzamide] is 2.5-fold lower in IC50: 5.9 µM for the first, 2.4 µM for the second. The second is the more potent here.

First: CC(C)[Si](C#Cc1cccc(-c2csc(NC(=O)c3ccc(-c4ccc(C(=O)N5CCN(C)CC5)cc4)o3)n2)c1)(C(C)C)C(C)C [Example 26, 5-(4-(4-methylpiperazine-1-carbonyl)phenyl)-N-(4-(3-((triisopropylsilyl)ethynyl)phenyl)thiazol-2-yl)furan-2-carboxamide]
Second: CC(C)[Si](OCC#Cc1cccc(-c2csc(NC(=O)c3ccc(-c4ccc(C(=O)N5CCN(C)CC5)cc4)o3)n2)c1)(C(C)C)C(C)C [Example 28, 5-(4-(4-methylpiperazine-1-carbonyl)phenyl)-N-(4-(3-(3-((triisopropylsilyl)oxy)prop-1-yn-1-yl)phenyl)thiazol-2-yl)furan-2-carboxamide]
The IC50 of the first is 3-fold higher: 11 µM for the first, 3.7 µM for the second. The second is the more potent here.

Going from `CN1CCN(C(=O)c2ccc(-c3ccc(C(=O)Nc4nc(-c5cccc(C#C[Si](C)(C)C(C)(C)C)c5)cs4)o3)cc2)CC1` [Example 27, N-(4-(3-((tert-butyldimethylsilyl)ethynyl)phenyl)thiazol-2-yl)-5-(4-(4-methylpiperazine-1-carbonyl)phenyl)furan-2-carboxamide] to `CN1CCN(Cc2ccc(C(=O)Nc3nc(-c4cccc(C#CCOC(c5ccccc5)(c5ccccc5)c5ccccc5)c4)cs3)cc2)CC1` [Example 30, 4-((4-methylpiperazin-1-yl)methyl)-N-(4-(3-(3-(trityloxy)prop-1-yn-1-yl)phenyl)thiazol-2-yl)benzamide], the IC50 rises from 2.3 µM to 10 µM (4.3-fold). The first is the more potent here.
